Results taken from patent US20040014740A1 (priority 2002, published 2004).

Test system: binding site of a radiolabelled ligand (assay of U.S. Patent No. 5,859,188)
Experiment: binding assay as described in U.S. Patent No. 5,859,188: percent displacement of a radiolabelled ligand
Conditions: for Testing Result % inhibition at indicated concentration / Testing Result % inhibition at indicated concentration, Test 1: percent displacement of radiolabelled ligand; for Testing Result % inhibition at indicated concentration, Test 2: concentration not given for Test 2
Protocol: Selected compounds were evaluated for their anti-parasitic activity in a binding assay as described in U.S. Patent No. 5,859,188 (Geary, et.al., 1999). Results of the evaluations are given in the following Table wherein % inhibition means percent displacement of a radiolabelled ligand as described.

| Compound | Testing Result % inhibition at indicated concentration (25 uM) | Testing Result % inhibition at indicated concentration, Test 1 (25 uM) | Testing Result % inhibition at indicated concentration, Test 2 | other results |
| --- | --- | --- | --- | --- |
| CC(C)OC(=O)c1c(NC(=O)CN2CCCCC2)sc2c1CCCC2 [cc, isopropyl 2-[(piperidin-1-ylacetyl)amino]-4,5,6,7-tetrahydro-1-benzothiophene-3-carboxylate] | 34-54% at 25 uM | – | – | – |
| CCOC(=O)c1cc(-c2ccsc2)sc1NC(=O)CN1CCCCC1 [aa, ethyl 5-[(piperidin-1-ylacetyl)amino]-2,3′-bithiophene-4-carboxylate] | – | 46-66% | 37-43% | – |
| CCOC(=O)c1c(NC(=O)CN2CCCCCC2)sc2c1CCC2 [k, ethyl 2-[(azepan-1-ylacetyl)amino]-5,6-dihydro-4H-cyclopenta[b]thiophene-3-carboxylate] | 77-70% at 25 uM | – | – | – |
| CCOC(=O)c1c(NC(=O)CN2CCCCCC2)sc2c1CCCC2 [h, ethyl 2-[(azepan-1-ylacetyl)amino]-4,5,6,7-tetrahydro-1-benzothiophene-3-carboxylate] | 46% at 25 uM | – | – | – |
| CCOC(=O)c1c(NC(=O)CN2CCC(O)CC2)sc2c1CCCC2 [ff, ethyl 2-{[(4-hydroxypiperidin-1-yl)acetyl]amino}-4,5,6,7-tetrahydro-1-benzothiophene-3-carboxylate] | 31-34% at 25 uM | – | – | – |
| CC(C)OC(=O)c1c(-c2ccc(Cl)c(Cl)c2)csc1NC(=O)CN1CCCCC1 [dd, isopropyl 4-(3,4-dichlorophenyl)-2-[(piperidin-1-ylacetyl)amino]thiophene-3-carboxylate] | 0-9% at 25 uM | – | – | – |
| CCOC(=O)c1c(NC(=O)C(C)N2CCCCC2)sc2c1CCCC2 (stereo not shown) [o, ethyl 2-[(2-piperidin-1-ylpropanoyl)amino]-4,5,6,7-tetrahydro-1-benzothiophene-3-carboxylate] | – | 46-73% | 38-40% | – |
| CCOC(=O)c1c(NC(=O)CN2CCCCC2)sc2c1CCN(Cc1ccccc1)C2 [u, ethyl 6-benzyl-2-[(piperidin-1-ylacetyl)amino]-4,5,6,7-tetrahydrothieno[2,3-c]pyridine-3-carboxylate] | – | 48-51% | 0-14% | – |
| CCOC(=O)c1c(-c2ccncc2)csc1NC(=O)CN1CCCCC1 [v, ethyl 2-[(piperidin-1-ylacetyl)amino]-4-pyridin-4-ylthiophene-3-carboxylate] | – | 15-43% | 14-17% | – |
| CCOC(=O)c1c(-c2ccc(Br)cc2)csc1NC(=O)CN1CCCCC1 [z, ethyl 4-(4-bromophenyl)-2-[(piperidin-1-ylacetyl)amino]thiophene-3-carboxylate] | – | 44-55% | 37-43% | – |
| CCOC(=O)c1c(NC(=O)CN2CCCC2)sc2c1CCC2 [j, ethyl 2-[(pyrrolidin-1-ylacetyl)amino]-5,6-dihydro-4H-cyclopenta[b]thiophene-3-carboxylate] | 83-88% at 25 uM | – | – | – |
| CCOC(=O)c1c(NC(=O)CN2CCCCC2)sc2c1CCN(C(=O)OCC)C2 [p, diethyl 2-[(piperidin-1-ylacetyl)amino]-4,7-dihydrothieno[2,3-c]pyridine-3,6(5H)-dicarboxylate] | – | 50-52% | 33-49% | – |
| COC(=O)c1c(NC(=O)CN2CCCCC2)sc2c1CCCC2 [x, methyl 2-[(piperidin-1-ylacetyl)amino]-4,5,6,7-tetrahydro-1-benzothiophene-3-carboxylate] | – | 55-70% | 41-55% | – |
| CCOC(=O)c1c(NC(=O)CN2CCCCC2)sc2c1CCC(C(C)(C)C)C2 (stereo not shown) [n, ethyl 6-tert-butyl-2-[(piperidin-1-ylacetyl)amino]-4,5,6,7-tetrahydro-1-benzothiophene-3-carboxylate] | 13% at 25 uM | – | – | – |
| CCOC(=O)c1c(NC(=O)CN2CCC2)sc2c1CCCC2 [i, ethyl 2-[(azetidin-1-ylacetyl)amino]-4,5,6,7-tetrahydro-1-benzothiophene-3-carboxylate] | 28% at 25 uM | – | – | – |
| CCOC(=O)c1c(NC(=O)CN2CCCC2)sc2c1CCCC2 [g, ethyl 2-[(pyrrolidin-1-ylacetyl)amino]-4,5,6,7-tetrahydro-1-benzothiophene-3-carboxylate] | 68-75% at 25 uM | – | – | – |

| Compound | Testing Result % inhibition at indicated concentration (25 uM) | Testing Result % inhibition at indicated concentration, Test 1 (25 uM) | Testing Result % inhibition at indicated concentration, Test 2 | other results |
| --- | --- | --- | --- | --- |
| CCOC(=O)c1c(NC(=O)CN2CCCCC2)sc2c1CC(C)CC2 (stereo not shown) [q, ethyl 5-methyl-2-[(piperidin-1-ylacetyl)amino]-4,5,6,7-tetrahydro-1-benzothiophene-3-carboxylate] | – | 65-74% | 15-22% | – |
| CCOC(=O)c1c(NC(=O)CN2CCCCC2)sc2c1CCC2 [A, ethyl 2-{[2-(1-piperidinyl)acetyl]amino}-5,6-dihydro-4H-cyclopenta[b]thiophene-3-carboxylate] | – | – | – | Testing Result % inhibition at indicated concentration (3 uM): 69% at 3 uM |
| CCOC(=O)c1c(NC(=O)CN2CCCCC2)sc2c1CCS2 [ee, ethyl 2-[(piperidin-1-ylacetyl)amino]-4,5-dihydrothieno[2,3-b]thiophene-3-carboxylate] | 61-72% at 25 uM | – | – | – |
| CCOC(=O)c1c(NC(=O)CN2CCCC(O)C2)sc2c1CCCC2 (stereo not shown) [gg, ethyl 2-{[(3-hydroxypiperidin-1-yl)acetyl]amino}-4,5,6,7-tetrahydro-1-benzothiophene-3-carboxylate] | 68-73% at 25 uM | – | – | – |
| CCOC(=O)c1c(C)csc1NC(=O)CN1CCCCC1 [w, ethyl 4-methyl-2-[(piperidin-1-ylacetyl)amino]thiophene-3-carboxylate] | – | 58-70% | 39-47% | – |
| CCOC(=O)c1c(NC(=O)CN2CCCCC2)sc2c1CC(C)(CC)OC2 (stereo not shown) [s, ethyl 5-ethyl-5-methyl-2-[(piperidin-1-ylacetyl)amino]-4,7-dihydro-5H-thieno[2,3-c]pyran-3-carboxylate] | – | 93-100% | 69-79% | – |
| CCCOC(=O)c1c(NC(=O)CN2CCCCC2)sc2c1CCCC2 [y, propyl 2-[(piperidin-1-ylacetyl)amino]-4,5,6,7-tetrahydro-1-benzothiophene-3-carboxylate] | – | 52-65% | 33-54% | – |
| CCOC(=O)c1c(-c2ccsc2)csc1NC(=O)CN1CCCCC1 [bb, ethyl 5-[(piperidin-1-ylacetyl)amino]-3,3′-bithiophene-4-carboxylate] | – | 40-63% | 18-38% | – |
| CCOC(=O)c1c(-c2ccco2)csc1NC(=O)CN1CCCCC1 [t, ethyl 4-(2-furyl)-2-[(piperidin-1-ylacetyl)amino]thiophene-3-carboxylate] | – | 70-75% | 24-40% | – |
| CCOC(=O)c1c(NC(=O)CN2CCCCC2)sc(Cl)c1-c1ccccc1 [l, ethyl 5-chloro-4-phenyl-2-[(piperidin-1-ylacetyl)amino]thiophene-3-carboxylate] | 35% at 25 uM | – | – | – |
| CCOC(=O)C1=C(NC(=O)CN2CCCCC2)SC2CCCCCC12 (stereo not shown) [C] | – | 82% | 53% | – |
| CCOC(=O)c1c(-c2ccc(C)cn2)csc1NC(=O)CN1CCCCC1 [r, ethyl 4-(5-methylpyridin-2-yl)-2-[(piperidin-1-ylacetyl)amino]thiophene-3-carboxylate] | – | 42% | 26% | – |
| CCOC(=O)c1c(NC(=O)CN2CCCCC2)sc2c1CCCC2 [Compound B] | – | – | – | Testing Result % inhibition at indicated concentration (1 uM): 59% at 1 uM |
| CCOC(=O)c1c(NC(=O)CN2CCCCC2)sc2c1CCC(c1ccccc1)C2 (stereo not shown) [m, ethyl 6-phenyl-2-[(piperidin-1-ylacetyl)amino]-4,5,6,7-tetrahydro-1-benzothiophene-3-carboxylate] | 36% at 25 uM | – | – | – |
| CCOC(=O)C1=C(NC(=O)CN2CCOCC2)SC2CCCCCC12 (stereo not shown) [Compound D] | 38% at 25 uM | – | – | – |
